In publication PMC5607274, “An iterative compound screening contest method for identifying target protein inhibitors using the tyrosine-protein kinase Yes” (Scientific Reports, 2017):
One block for each molecule: values may come before it.

Biological target: T1, human recombinant Yes [a.a. 2–543 (end)] (Homo sapiens, UniProt P07947)
T1 construct: human recombinant Yes [a.a; 2–543 (end)]; purchased BPS Bioscience 40488
Test: ADP-Glo kinase assay, inhibition rates of Yes phosphorylation activity (first and second screening)
Assay type: biochemical
Conditions: first screening; mean of n = 4 wells; 10 μmol L−1 compound
In short: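 Hits from a first pass were rescreened after re-dissolution from fresh powder. The first pass reported the mean inhibition rate of quadruplicate wells per compound. Activity was that of recombinant human Yes [a.a. 2–543] kinase, read out with the ADP-Glo ADP-detection method.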

T1 sequence (P07947 2-543): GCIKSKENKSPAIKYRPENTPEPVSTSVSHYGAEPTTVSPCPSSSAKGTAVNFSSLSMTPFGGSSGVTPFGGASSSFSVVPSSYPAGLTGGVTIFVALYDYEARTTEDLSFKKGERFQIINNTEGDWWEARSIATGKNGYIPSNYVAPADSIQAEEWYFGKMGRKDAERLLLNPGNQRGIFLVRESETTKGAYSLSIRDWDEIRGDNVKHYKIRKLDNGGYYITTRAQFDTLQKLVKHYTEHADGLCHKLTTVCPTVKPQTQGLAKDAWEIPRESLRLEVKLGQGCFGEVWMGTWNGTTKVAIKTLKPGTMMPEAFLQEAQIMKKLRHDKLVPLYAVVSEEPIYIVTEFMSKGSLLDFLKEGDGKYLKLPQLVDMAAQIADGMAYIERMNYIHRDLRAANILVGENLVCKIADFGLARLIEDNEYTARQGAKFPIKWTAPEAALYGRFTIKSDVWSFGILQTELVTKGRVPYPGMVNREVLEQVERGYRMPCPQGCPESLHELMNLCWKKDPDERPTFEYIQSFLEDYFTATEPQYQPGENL

Structure (SMILES): CNS(=O)(=O)c1ccc(NC(=O)c2cn(-c3ccccc3)nc2-c2cccnc2)cc1 [Compound Z101840388]
First screening IR (inhibition rate): 11%

Structure (SMILES): O=C(CSc1nnc(-c2ccc3c(c2)OCO3)n1-c1ccccc1)c1ccc[nH]1 [Compound Z16254229]
First screening IR (inhibition rate): 7%

Structure (SMILES): CC(C)(C)c1cc(-n2c(-c3cccnc3)nc3cc4c(cc32)OCCO4)cc(C(C)(C)C)c1O [Compound Z56793119]
First screening IR (inhibition rate): 6%

Structure (SMILES): COC(=O)c1cc(-c2ccccc2F)nc2c1cnn2C(C)C [Compound Z91043804]
First screening IR (inhibition rate): -6%

Structure (SMILES): CCn1ncc2c(C(=O)NCc3cc(OC)c(OC)cc3OC)cc(-c3ccccc3)nc21 [Compound Z224953910]
First screening IR (inhibition rate): 2%

Structure (SMILES): COc1ccccc1NC(=O)c1ccc(NC(=O)COc2ccc(-c3nc(C)cs3)cc2)cc1 [Compound Z99004386]
First screening IR (inhibition rate): 5%

Structure (SMILES): O=C(Nc1n[nH]c(-c2ccc(F)cc2)n1)c1csc2c1CCCC2 [Compound Z119708890]
First screening IR (inhibition rate): -5%

Structure (SMILES): CCn1ncc2c(C(=O)Nc3ncc(C)s3)cc(-c3ccccc3)nc21 [Compound Z224316064]
First screening IR (inhibition rate): 10%

Structure (SMILES): Cc1cc(C)nc(N/N=C/c2ccc3ncccc3c2)n1 [Compound Z49539423]
First screening IR (inhibition rate): -6%

Structure (SMILES): CCN(CC)S(=O)(=O)c1ccc(S(=O)(=O)N(C)C)cc1 [Compound Z45516173]
First screening IR (inhibition rate): 3%

Structure (SMILES): COc1ccccc1NC(=O)c1ccc(NC(=O)COc2ccc(C3SCCS3)cc2)cc1 [Compound Z17289317]
First screening IR (inhibition rate): 1%

Structure (SMILES): CC(NC(=O)c1ccc2nc[nH]c2c1)c1ccc(F)c(F)c1 (stereo not shown) [Compound Z28547957]
First screening IR (inhibition rate): -1%

Structure (SMILES): N#Cc1c(NC(=O)COC(=O)c2cn(-c3ccccc3)nc2-c2cccnc2)oc(-c2ccccc2)c1-c1ccccc1 [Compound Z56941227]
First screening IR (inhibition rate): -9%

Structure (SMILES): Cc1ccc(-c2csc3ncn(CC(=O)NC(CN4CCOCC4)c4ccccc4)c(=O)c23)cc1 (stereo not shown) [Compound Z146890674]
First screening IR (inhibition rate): 4%

Second part, the molecule after the results:

First screening IR (inhibition rate): 1%
Structure (SMILES): CC(=O)c1ccc(N2CCN(CC(=O)c3cc(C)[nH]c3C)CC2)c(F)c1 [Compound Z238811284]

First screening IR (inhibition rate): 13%
Structure (SMILES): Cc1c(C#N)c(NC(=O)CN2CCN(c3ncnc4c3cnn4C)CC2)n(Cc2ccccc2)c1C [Compound Z234865770]

First screening IR (inhibition rate): -5%
Structure (SMILES): CCN1CCN(c2cc(CNC(=O)c3cn(-c4ccccc4)nc3-c3ccc(OC)cc3)ccn2)CC1 [Compound Z955363064]

First screening IR (inhibition rate): 7%
Structure (SMILES): NC(=O)CCn1c(SCc2cn3ccccc3n2)nnc1-c1cccs1 [Compound Z269761360]

First screening IR (inhibition rate): -1%
Structure (SMILES): CN(c1ccc(I)cc1)S(=O)(=O)c1cn[nH]c1 [Compound Z805651486]

First screening IR (inhibition rate): 0%
Structure (SMILES): FC(F)(F)c1ccnc(Nc2ccc3[nH]ncc3c2)n1 [Compound Z285702074]

First screening IR (inhibition rate): 13%
Structure (SMILES): CC1c2cc(Cl)cc(Cl)c2CCN1C(=O)c1cnc2n1CCCC2 (stereo not shown) [Compound Z1494913871]

First screening IR (inhibition rate): 1%
Structure (SMILES): COC(=O)c1cc(S(=O)(=O)Oc2ccc3c(C(C)C)cc(=O)oc3c2)cn1C [Compound Z1309300961]

First screening IR (inhibition rate): -14%
Structure (SMILES): Cc1ccc(Oc2ccc(NC(=O)N3CCNC(=O)C3)cn2)cc1 [Compound Z435639920]

First screening IR (inhibition rate): 16%
Structure (SMILES): O=C(/C=C/c1cccnc1)c1ccc(N2CCOC2=O)cc1 [Compound Z970272914]

First screening IR (inhibition rate): -1%
Structure (SMILES): COc1ccc(N(C)C(=O)c2[nH]nc(-c3ccccc3)c2Br)cn1 [Compound Z934680220]

First screening IR (inhibition rate): 21%
Structure (SMILES): CC(NCc1ccnc(OC2CCOC2)c1)c1cccc(F)c1 (stereo not shown) [Compound Z1583197068]

First screening IR (inhibition rate): -8%
Structure (SMILES): CCC(C)NC(=O)c1ccc2c(=O)n(CC(C)C)c3nnc(SCC(=O)Nc4ccccc4C)n3c2c1 (stereo not shown) [Compound Z1157725045]

First screening IR (inhibition rate): -10%
Structure (SMILES): c1ccc(-c2nc(NCc3ccc(-n4cncn4)cc3)no2)cc1 [Compound Z1722673239]
